According to PubChem BioAssay (NCI):
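The compound was tested at five concentrations on cells cultured in 96-well plates, with a 48-hour exposure period. The concentration for full growth arrest is given as TGI.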

Columns and labels:
Experiment in all cases: inhibition of tumour cell growth, NCI panel, 48 h
MDA-MB-435 = tested on: MDA-MB-435
HS 578T breast = tested on: HS 578T breast
SW-620 colon = tested on: SW-620 colon
BT-549 breast = tested on: BT-549 breast
NCI-H522 lung = tested on: NCI-H522 lung
SF-268 CNS = tested on: SF-268 CNS
SN12C renal = tested on: SN12C renal
HOP-62 NSCLC = tested on: HOP-62 NSCLC
IGROV1 ovarian = tested on: IGROV1 ovarian
ACHN renal = tested on: ACHN renal

Structure (SMILES) | TGI (MDA-MB-435) [µM] | TGI (HS 578T breast) [µM] | TGI (SW-620 colon) [µM] | TGI (BT-549 breast) [µM] | TGI (NCI-H522 lung) [µM] | TGI (SF-268 CNS) [µM] | TGI (SN12C renal) [µM] | TGI (HOP-62 NSCLC) [µM] | TGI (IGROV1 ovarian) [µM] | TGI (ACHN renal) [µM]
Nc1ccccc1N/C=C\C(=O)C(Cl)(Cl)Cl | 28 | > 100 | 48.1 | 58.6 | > 100 | > 100 | 40.2 | 37.2 | 40.7 | 35.1
COc1cc(/C=C2\N=C(c3ccccc3)N(c3nc4c(OC)ccc(OC)c4s3)C2=O)cc(OC)c1OC | > 100 | > 100 | > 100 | > 100 | > 100 | > 100 | > 100 | > 100 | > 100 | > 100
O=C(OCc1ccccc1)C1(N2CN(C3(C(=O)OCc4ccccc4)CCCC3)CN(C3(C(=O)OCc4ccccc4)CCCC3)C2)CCCC1 | > 10 | > 10 | > 10 | > 10 | > 10 | > 10 | > 10 | > 10 | > 10 | > 10
CCCCCCCCCCCCCCCCCCNc1ccn(C2OC(COP(=O)(O)OCC3OC(n4cc(C)c(=O)[nH]c4=O)CC3N=[N+]=[N-])C(O)C2O)c(=O)n1 (stereo not given) | 63.2 | 49.8 | 58.8 | 49.2 | 30.7 | 43.6 | 48.1 | 45 | 42.5 | > 100
COc1ccc2c(c1)n([O-])c(C#N)c(N1CCN(c3ccc([N+](=O)[O-])cc3)CC1)[n+]2=O | 97.3 | > 24.4 | > 100 | > 76.7 | 9.97 | > 34.4 | > 100 | > 71.4 | > 100 | > 100
O=C(c1ccccc1)c1ccc2nc(-c3c(Cl)c(Cl)c(Cl)c(Cl)c3C(=O)N/N=C/c3ccccc3)[nH]c2c1 | 90.8 | > 100 | > 100 | > 100 | 55.3 | > 100 | 60.8 | 99.7 | > 100 | 49.2
C(=C\c1ccccc1)/C=N/c1nc2cc3sc(/N=C/C=C/c4ccccc4)nc3cc2s1 | > 100 | > 100 | > 100 | > 100 | > 100 | > 100 | > 100 | > 100 | > 100 | > 100
CN(C)CCNC(=O)c1cccc2nc3c(nc12)-c1ccccc1C3=O | 32.1 | 44 | 39.4 | 29.7 | 30.7 | 32.2 | 28.9 | 16.6 | > 71.1 | 32.1
C=CCNC(=O)NC1=CSC2=NC(=O)C3(NN12)c1ccccc1-c1ccccc13 | > 10 | > 10 | > 10 | > 10 | > 10 | > 10 | > 10 | > 10 | > 10 | > 10
O=C1C=C(Br)c2c(Br)sc(Br)c21 | 42.9 | > 100 | > 20.6 | 17 | 3.99 | > 57.3 | 38.3 | > 79.9 | 16.5 | 15.3
O=c1cc(N2CCCC2)[nH]c(=O)n1-c1cccc(C(F)(F)F)c1 | > 100 | > 100 | > 100 | > 100 | > 100 | > 100 | > 100 | > 100 | > 100 | > 100
OC1(c2cc3ccccc3s2)CCCCC1 | > 100 | 87.5 | > 100 | > 100 | 65.6 | 93.6 | > 100 | > 100 | > 100 | > 100
Cc1sc(/N=C/c2c[nH]c3ccccc23)c(C#N)c1C | > 100 | > 100 | > 100 | > 100 | > 100 | > 100 | > 100 | > 100 | > 100 | > 100
